Data published in patent US6979664B1, “Composition for accelerating seed germination and plant growth” (Bios Agriculture Inc., priority 1998, dated 2005).

Experiments:
[1] = tested on: Letuca sativa; assay: seedling emergence at 25° C.; assay type: in vivo
Text: (§1) Plastic pots (7.5 cm dia) were filled with 15 g of autoclaved vermiculite. Seeds of corn (Zea mays—Poaceae), bean (Phaseolus vulgaris—Fabaceae), canola (Brassica napus—Brassicaceae), cucumber (Cucumis sativus—Cucurbitaceae), cantaloupe (Cucumis melo—Cucurbitaceae), cotton (Gossypium sp.—Malvaceae), lettuce (Lactuca sativa—Asteraceae), beet (Beta vulgaris—Chenopodiaceae), and soybean (Glycine max—Fabaceae), were placed at 2.5 cm deep at the rate of 5 or 10 seeds per pot. Pots were irrigated with either 25 mL of LCO solution at different concentrations (10^−6–10^−14M) or aqueous acetonitrile or water, as controls. Acetonitrile was included as one of the controls since LCO was purified in this solvent (see Example 3), after 4 days the pots were irrigated with 10 mL of water once every two days. Each treatment had 4 replications in a randomized block design. Pots were placed on a green house bench maintained at 25±2° C. with a day/night cycle 16/8 h and relative humidity of 70%, or in a growth chamber set at 15° C. with a 16:8 day/night cycle. […] As defined above, seedling emergence has occurred when growth of the plant can be observed above the rooting medium surface. The percent emergence was calculated. The data were analyzed with Statistical Analysis System, version 6.12 (SAS institute Inc. Cary, N.C., USA).

[2] = tested on: Zea mays; assay: seedling emergence at 25° C.; assay type: in vivo
Text: as §1

Structure (SMILES): CCCCCCC=CCCCCCCCCCC(=O)NC1C(OC2C(CO)OC(OC3C(CO)OC(OC4C(CO)OC(OC5C(COC6OC(C)C(O)C(O)C6OC)OC(O)C(NC(C)=O)C5O)C(NC(C)=O)C4O)C(NC(C)=O)C3O)C(NC(C)=O)C2O)OC(CO)C(O)C1O (stereo not drawn) [LCO, NodBj-V(C18:1Δ11)]
- seedling emergence (%) ([1]; 10^−6 M): 45 a %
- seedling emergence (%) ([1]; 10^−7 M): 35 ab %
- seedling emergence (%) ([1]; 10^−8 M): 10 dc %
- seedling emergence (%) ([1]; 10^−9 M): 20 bcd %
- seedling emergence (%) ([1]; 10^−10 M): 25 abcd %
- seedling emergence (%) ([1]; 10^−11 M): 26 abcd %
- seedling emergence (%) ([1]; 10^−12 M): 30 abc %
- seedling emergence (%) ([1]; 10^−13 M): 5 d %
- seedling emergence (%) ([1]; 10^−14 M): 10 d %
- seedling emergence (%) ([2]; 10^−6 M): 76 ab %
- seedling emergence (%) ([2]; 10^−7 M): 68 abc %
- seedling emergence (%) ([2]; 10^−8 M): 84 a %
- seedling emergence (%) ([2]; 10^−9 M): 88 a %
- seedling emergence (%) ([2]; 10^−10 M): 84 a %
- seedling emergence (%) ([2]; 10^−11 M): 68 abc %
- seedling emergence (%) ([2]; 10^−12 M): 48 abc %
- seedling emergence (%) ([2]; 10^−13 M): 40 c %
- seedling emergence (%) ([2]; 10^−14 M): 40 c %
